The values below come from US20230312605A1, “PYRROLO[2,1-F][1,2,4]TRIAZINES AND PREPARATION AND USES THEREOF” (BioSplice Therapeutics, Inc., priority 2021, published 2023).

The test addresses recombinant DYRK1A kinase (Homo sapiens (Human), UniProt Q13627). Nature of the test: DYRK1A kinase assay (Ser/Thr 18 peptide Z-lyte FRET assay). Format: biochemical. Conditions: recombinant DYRK1A 0.25 µg/mL, ATP 15 µM, Ser/Thr peptide 18 4 µM, one hour at room temperature; table head prints EC50, method says IC50. As to the method: Representative compounds were screened using the assay procedure for DYRK1A kinase activity as described below.
Each compound was dissolved in DMSO as a 10 mM stock and used to prepare compound source plates. Serial dilution (1:3, 11-point dose-response curves from 10 µM to 0.00016 µM) and compound transfer was performed using the ECHO 550 (Labcyte, Sunnyvale, CA) into 1536-well black-walled round bottom plates (Corning).
The DYRK1A kinase assay was run using the Ser/Thr 18 peptide Z-lyte assay kit according to manufacturer’s instructions (Life Technologies- a Division of Thermo-Fisher). This is a non-radioactive assay using fluorescence resonance energy transfer (FRET) between coumarin and fluorescein to detect kinase activity which is represented as a ratio of coumarin emission/fluorescein emission.
Briefly, recombinant DYRK1A kinase, ATP and Ser/Thr peptide 18 were prepared in 1X Kinase buffer to final concentrations of 0.25 µg/mL, 15 µM, and 4 µM respectively. The mixture was allowed to incubate with the representative compounds for one hour at room temperature. All reactions were performed in duplicate. Unphosphorylated (“0% Control”) and phosphorylated (“100% control”) forms of Ser/Thr 18 served as control reactions. Additionally, an 11-point dose-response curve of Staurosporine (1uM top) was run to serve as a positive compound control.
After incubation, Development Reagent A was diluted in Development Buffer then added to the reaction and allowed to further incubate for one hour at room temperature. The plate was read at Ex 400 Em 455 to detect the coumarin signal and Ex 400 Em 520 to measure the signal (EnVision Multilabel Plate Reader, PerkinElmer).
The Emission ratio (Em) was calculated as a ratio of the coumarin (C) emission signal (at 445 nm)/Fluorescein (F) emission signal (at 520 nm). The percent phosphorylation was then calculated using the following formula: [1 — ((Em ratio X F100%)—C100%)/ ((C0%—C100%) + (Em ratio X (F100% - F0%)))]. Dose-response curves were generated, and inhibitory concentration (IC50) values were calculated using non-linear regression curve fit in the Dotmatics’ Studies Software (Bishops Stortford, UK).

The term EC50 denotes the concentration that produces a half-maximal response. With `Cc1nc2ccc(-c3ccn4nc(N[C@H]5C[C@@H](CO)C5)ncc34)nc2n1CC(F)F` [Compound 1834, (cis-3-((5-(3-(2,2-Difluoroethyl)-2-methyl-3H-imidazo[4,5-b]pyridin-5-yl)pyrrolo[2,1-f][1,2,4]triazin-2-yl)amino)cyclobutyl)methanol], the EC50 is 3 nM.
Regarding `Cc1nc2ccc(-c3ccn4nc(N[C@@H]5CCN(CC(C)C)C[C@@H]5F)ncc34)nc2n1CC(F)F` [Compound 1908, 5-(3-(2,2-Difluoroethyl)-2-methyl-3H-imidazo[4,5-b]pyridin-5-yl)-N-((3S,4R)-3-fluoro-1-isobutylpiperidin-4-yl)pyrrolo[2,1-f] [1,2,4]triazin-2-amine], the 50% effective concentration (EC50) came to 7 nM.
For the compound `Cc1nc2ncc(-c3ccn4nc(N[C@H]5CCN(C)C[C@H]5F)ncc34)cc2n1CC(F)F` [Compound 1887, 5-(1-(2,2-Difluoroethyl)-2-methyl-1H-imidazo[4,5-b]pyridin-6-yl)-N-((3R,4S)-3-fluoro-1-methylpiperidin-4-yl)pyrrolo[2,1-f][1,2,4]triazin-2-amine], the EC50 came to 31 nM.
As to `Cc1nc2nc(-c3ccn4nc(N[C@H]5CC[C@@H](OC(F)(F)F)CC5)ncc34)cnc2n1CC(F)F` [Compound 1971, 5-(1-(2,2-Difluoroethyl)-2-methyl-1H-imidazo[4,5-b]pyrazin-5-yl)-N-(cis-4-(trifluoromethoxy)cyclohexyl)pyrrolo[2,1-f][1,2,4]triazin-2-amine], the EC50 turned out to be 379 nM.
`Cc1nc2ccc(-c3ccn4nc(N[C@H]5CC[C@H](C(=O)N(C)C)CC5)ncc34)nc2n1CC(F)F` [Compound 1895, trans-4-((5-(3-(2,2-Difluoroethyl)-2-methyl-3H-imidazo[4,5-b]pyridin-5-yl)pyrrolo[2,1-f] [1,2,4]triazin-2-yl)amino)-N,N-dimethylcyclohexane-1-carboxamide]: the EC50 worked out at 3 nM.
For the compound `FC1(F)CC(Nc2ncc3c(-c4cnc5nccn5c4)ccn3n2)C1` [Compound 236, N-(3,3-Difluorocyclobutyl)-5-(imidazo[1,2-a]pyrimidin-6-yl)pyrrolo[2,1-f] [1,2,4]triazin-2-amine], the EC50 was 9 nM.
Take `CC(C)CNc1ncc2c(-c3cnc4nccn4c3)ccn2n1` [Compound 215, 5-(Imidazo[1,2-a]pyrimidin-6-yl)-N-isobutylpyrrolo[2,1-f][1,2,4]triazin-2-amine]: the EC50 worked out at 6 nM.
For `Cc1nc2ccc(-c3ccn4nc(N[C@H]5C[C@](C)(O)C5)ncc34)nc2n1CC(F)F` [Compound 1835, trans-3-((5-(3-(2,2-Difluoroethyl)-2-methyl-3H-imidazo[4,5-b]pyridin-5-yl)pyrrolo[2,1-f][1,2,4]triazin-2-yl)amino)-1-methylcyclobutan-1-ol], the EC50 amounted to 3 nM.
With `[2H]C([2H])([2H])O[C@H]1CC[C@@H](Nc2ncc3c(-c4cnc5nccn5c4)ccn3n2)CC1` [Compound 1802, 5-(Imidazo[1,2-a]pyrimidin-6-yl)-N-(cis-4-(methoxy-ds)cyclohexyl)pyrrolo [2,1-f][1,2,4] triazin-2-amine], the EC50 amounted to 5 nM.
Turning to `CCn1c(C)nc2ccc(-c3ccn4nc(NCC(C)(C)F)ncc34)nc21` [Compound 926, 5-(3-Ethyl-2-methyl-3H-imidazo[4,5-b]pyridin-5-yl)-N-(2-fluoro-2-methylpropyl)pyrrolo[2,1-f][1,2,4]triazin-2-amine], the EC50 came out at 27 nM.
For `Cc1nc2ccc(-c3ccn4nc(N[C@@H]5COC[C@H]5O)ncc34)nc2n1CC(F)F` [Compound 1906, (3S,4R)-4-((5-(3-(2,2-Difluoroethyl)-2-methyl-3H-imidazo [4,5-b]pyridin-5-yl)pyrrolo[2,1-f][1,2,4]triazin-2-yl)amino)tetrahydrofuran-3-ol], the EC50 was found to be 4 nM.
Next, `Cn1nnc2ccc(-c3ccn4nc(NCC(C)(C)F)ncc34)cc21` [Compound 1210, N-(2-Fluoro-2-methylpropyl)-5-(1-methyl-1H-benzo[d][1,2,3]triazol-6-yl) pyrrolo[2,1-f][1,2,4]triazin-2-amine]: 66 nM.
On to `Cc1nc2ccc(-c3ccn4nc(NC5CCN(S(C)(=O)=O)CC5)ncc34)nc2n1CC(F)F` [Compound 1861, 5-(3-(2,2-Difluoroethyl)-2-methyl-3H-imidazo[4,5-b]pyridin-5-yl)-N-(1-(methylsulfonyl)piperidin-4-yl)pyrrolo[2,1-f][1,2,4]triazin-2-amine], for which the EC50 came out at 7 nM.
Next, `C[C@]1(O)CC[C@H](Nc2ncc3c(-c4ccn5nccc5c4)ccn3n2)CC1` [Compound 1891, trans-1-Methyl-4-((5-(pyrazolo[1,5-a]pyridin-5-yl)pyrrolo[2,1-f][1,2,4]triazin-2-yl)amino)cyclohexan-1-ol]: 11 nM; `CO[C@@H]1COCC[C@H]1Nc1ncc2c(-c3ccc4nc(C)n(CC(F)F)c4n3)ccn2n1` [Compound 1867, 5-(3-(2,2-Difluoroethyl)-2-methyl-3H-imidazo[4,5-b]pyridin-5-yl)-N-((3S,4R)-3-methoxytetrahydro-2H-pyran-4-yl)pyrrolo[2,1-f][1,2,4]triazin-2-amine]: 32 nM.
Take `Cc1nc2ncc(-c3ccn4nc(NCC(C)(C)F)ncc34)cc2n1C1CC(F)(F)C1` [Compound 713, 5-(1-(3,3-Difluorocyclobutyl)-2-methyl-1H-imidazo[4,5-b]pyridin-6-yl)-N-(2-fluoro-2-methylpropyl)pyrrolo[2,1-f][1,2,4]triazin-2-amine]: the EC50 stood at 11 nM.
`CC(=O)N1C[C@H](F)[C@H](Nc2ncc3c(-c4ccc5nc(C)n(CC(F)F)c5n4)ccn3n2)C1` [Compound 1941, 1-((3R,4S)-3-((5-(3-(2,2-Difluoroethyl)-2-methyl-3H-imidazo[4,5-b]pyridin-5-yl)pyrrolo[2,1-f] [1,2,4]triazin-2-yl)amino)-4-fluoropyrrolidin-1-yl)ethan-1-one]: the EC50 came to 4 nM.
Next, `COCCO[C@H]1CC[C@@H](Nc2ncc3c(-c4ccc5nc(C)n(CC(F)F)c5n4)ccn3n2)CC1` [Compound 1117, 5-(3-(2,2-Difluoroethyl)-2-methyl-3H-imidazo[4,5-b]pyridin-5-yl)-N-(cis-4-(2-methoxyethoxy)cyclohexyl)pyrrolo[2,1-f][1,2,4]triazin-2-amine]: 4 nM; `C[C@@H](Nc1ncc2c(-c3cnc4nccn4c3)ccn2n1)C1CC1` [Compound 231, (R)-N-(1-Cyclopropylethyl)-5-(imidazo[1,2-a]pyrimidin-6-yl)pyrrolo[2,1-f] [1,2,4]triazin-2-amine]: 28 nM.
For `Cc1nc2ccc(-c3ccn4nc(N[C@H]5CC[C@@](C)(O)CC5)ncc34)nc2n1CC1COC1` [Compound 1875, cis-1-Methyl-4-((5-(2-methyl-3-(oxetan-3-ylmethyl)-3H-imidazo[4,5-b]pyridin-5-yl)pyrrolo[2,1-f][1,2,4]triazin-2-yl)amino)cyclohexan-1-ol], the EC50 is 14 nM.
With `COCCO[C@H]1CC[C@H](Nc2ncc3c(-c4ccc5nc(C)n(CC(F)F)c5n4)ccn3n2)CC1` [Compound 1118, 5-(3-(2,2-Difluoroethyl)-2-methyl-3H-imidazo[4,5-b]pyridin-5-yl)-N-(trans-4-(2-methoxyethoxy)cyclohexyl)pyrrolo[2,1-f][1,2,4]triazin-2-amine], the EC50 amounted to 5 nM.
Next, `CC(C)(CNc1ncc2c(-c3cnc4nccn4c3)ccn2n1)C(F)(F)F` [Compound 221, 5-(Imidazo[1,2-a]pyrimidin-6-yl)-N-(3,3,3-trifluoro-2,2-dimethylpropyl) pyrrolo[2,1-f][1,2,4]triazin-2-amine]: 29 nM; `Cc1nc2ccc(-c3ccn4nc(N[C@H]5CCN(C6COC6)C[C@H]5F)ncc34)nc2n1CC(F)F` [Compound 1955, 5-(3-(2,2-Difluoroethyl)-2-methyl-3H-imidazo[4,5-b]pyridin-5-yl)-N-((3R,4S)-3-fluoro-1-(oxetan-3-yl)piperidin-4-yl)pyrrolo[2,1-f][1,2,4]triazin-2-amine]: 4 nM.
For the compound `CC(C)(F)CNc1ncc2c(-c3ccc4ncccc4c3)ccn2n1` [Compound 1281, N-(2-Fluoro-2-methylpropyl)-5-(quinolin-6-yl)pyrrolo[2,1-f][1,2,4]triazin-2-amine], the EC50 amounted to 15 nM.
As to `Cc1nc2ncc(-c3ccn4nc(N[C@H]5CCN(C)C[C@@H]5F)ncc34)cc2n1CC(F)F` [Compound 1886, 5-(1-(2,2-Difluoroethyl)-2-methyl-1H-imidazo[4,5-b]pyridin-6-yl)-N-((3S,4S)-3-fluoro-1-methylpiperidin-4-yl)pyrrolo[2,1-f][1,2,4]triazin-2-amine], the EC50 was 3 nM.
